Patent US20150315188A1, “COMPOUNDS AND METHODS FOR TREATMENT OF HYPERTENSION” (MEDIVATION TECHNOLOGIES, INC., priority 2012, published 2015)

Tests used:
[1] = Epimerization of chiral compounds in simulated gastric fluid (SGF); assay type: physicochemical; details: 24 h
Procedure: Epimerization Method for Studying Chiral Compounds in Simulated Gastric Fluid (SGF) and Stimulated Intestinal Fluid (SIF)
A measured quantity of sample was dissolved in SGF or SIF at the concentration of 1 mg/mL in a volumetric flask and appropriate number of aliquots of this solution were transferred to incubation vials as per the given time points. For the sample of zero hour, the appropriate volume of saturated Bicarbonate solution was added immediately to the sample, and was stirred for 5-10 mins. The compound was extracted in a suitable solvent (e.g. Ethyl acetate), decanting the organic layer. The organic solvent was evaporated, and the residue was dissolved in an appropriate solvent (Methanol/Ethanol), filtered through a 0.22 μm membrane filter and analyzed by chiral HPLC. The remaining aliquots were incubated at different temperatures i.e. 25° C. and 37° C. in a water bath as per the given time points. The respective samples were retrieved from the incubator/Water bath at different time intervals as per the given time points: 90 mins, 4 h, 6 h, 12 h and 24 h, and the same procedure for sample preparation was followed for the zero hour sample.
All the chromatograms were obtained at the specified wavelength, compiled and the curves between Time Vs % Area were plotted.

[2] = target: T1, Human adrenergic α2A receptor (Homo sapiens, UniProt P08913); assay: Radioligand binding, adrenergic α2A (Protocol Group A); set-up: expressed in transfected cells; host or cells: insect Sf9 cells; details: 0.1 μM compound, [3H]MK-912, read-out: percent inhibition of specific binding, Adrenergic α2A
T1 sequence (P08913 1-465): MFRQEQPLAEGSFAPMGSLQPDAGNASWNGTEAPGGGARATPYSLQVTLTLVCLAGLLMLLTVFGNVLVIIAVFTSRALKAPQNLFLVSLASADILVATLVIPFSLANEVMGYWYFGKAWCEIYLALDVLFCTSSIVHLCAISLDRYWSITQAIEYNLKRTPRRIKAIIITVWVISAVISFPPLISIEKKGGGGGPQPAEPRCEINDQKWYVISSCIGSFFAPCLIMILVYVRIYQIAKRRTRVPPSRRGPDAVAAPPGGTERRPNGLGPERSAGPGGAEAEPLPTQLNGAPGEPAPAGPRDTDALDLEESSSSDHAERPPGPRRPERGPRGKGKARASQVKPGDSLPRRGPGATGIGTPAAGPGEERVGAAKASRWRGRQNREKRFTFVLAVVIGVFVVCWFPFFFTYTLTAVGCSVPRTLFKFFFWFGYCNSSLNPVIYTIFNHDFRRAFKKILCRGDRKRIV
Procedure: To evaluate in radioligand binding assays the activity of compounds of the invention, human recombinant adrenergic α2A receptor expressed in insect Sf9 cells (Uhlen, S. et al, J. Pharmacol. Exp. Ther. 271:1558, 1994) in a modified Tris-HCl buffer (50 mM Tris-HCl, pH 7.4, 12.5 mM MgCl2, 2 mM EDTA) was used. Compounds of invention were incubated with 1 nM [^3H]MK-912 for 60 min at 25° C. MK912 is (2S-trans)-1,3,4,5′,6,6′,7,12b-octahydro-1′,3′-dimethyl-spiro[2H-benzofuro[2,3-a]quinolizine-2,4′(1′H)-pyrimidin]-2′(3′H)-one hydrochloride. Non-specific binding was estimated in the presence of 10 μM WB-4101 (2-(2,6-Dimethoxyphenoxyethyl)aminomethyl-1,4-benzodioxane hydrochloride). Receptor proteins were filtered and washed, the filters were then counted to determine [^3H]MK-912 specifically bound. Compounds were screened at 1 μM or lower, using 1% DMSO as vehicle. Compounds of the invention were tested in this biochemical assay and percent inhibition of specific binding was determined. Biochemical assay results are presented as the percent inhibition of specific binding in Table B1a.

[3] = target: T2, rat adrenergic α1B receptor (Rattus norvegicus, UniProt P15823); assay: Radioligand binding, adrenergic α1B (Protocol Group A); details: 0.1 μM compound, [3H]Prazosin, read-out: percent inhibition of specific binding, Adrenergic α1B
T2 construct: rat adrenergic α1B receptor obtained from Wistar Rat liver; from tissue; host or cells: Wistar rat liver
T2 sequence (P15823 1-515): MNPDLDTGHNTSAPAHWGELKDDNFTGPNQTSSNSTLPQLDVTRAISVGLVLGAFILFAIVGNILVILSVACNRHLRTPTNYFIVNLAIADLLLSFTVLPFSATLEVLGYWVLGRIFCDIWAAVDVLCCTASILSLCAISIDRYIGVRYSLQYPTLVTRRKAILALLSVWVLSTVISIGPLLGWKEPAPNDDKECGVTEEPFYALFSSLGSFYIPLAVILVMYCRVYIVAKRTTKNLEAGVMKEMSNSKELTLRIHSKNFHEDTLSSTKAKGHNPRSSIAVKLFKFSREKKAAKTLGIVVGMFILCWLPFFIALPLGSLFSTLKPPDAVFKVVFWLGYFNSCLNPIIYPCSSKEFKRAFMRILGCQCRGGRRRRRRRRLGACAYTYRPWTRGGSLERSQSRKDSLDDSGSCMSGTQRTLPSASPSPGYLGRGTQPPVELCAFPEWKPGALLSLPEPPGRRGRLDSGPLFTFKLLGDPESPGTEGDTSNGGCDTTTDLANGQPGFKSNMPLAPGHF
Procedure: To evaluate in radioligand binding assays the activity of compounds of the invention, rat adrenergic α1B receptor obtained from Wistar Rat liver (Garcia-S'ainz, J. et al, Biochem. Biophys. Res. Commun. 186:760, 1992; Michel, A. et al, Br. J. Pharmacol. 98:883, 1989) in a modified Tris-HCl buffer (50 mM Tris-HCl buffer, pH 7.4, 0.5 mM EDTA) was used. Compounds of the invention were incubated with 0.25 nM [^3H]Prazosin for 60 min at 25° C. Non-specific binding was estimated in the presence of 10 μM phentolamine. Receptor proteins were filtered and washed, the filters were then counted to determine [^3H]Prazosin specifically bound. Compounds were screened at 1 μM or lower, using 1% DMSO as vehicle. Compounds of the invention were tested in this biochemical assay and percent inhibition of specific binding was determined. Biochemical assay results are presented as the percent inhibition of specific binding in Table B1a.

| SMILES | epimerization ([1]; 25° C.) | epimerization ([1]; 37° C.) | inhibition at 0.1 µM [2] | inhibition at 0.1 µM [3] |
| --- | --- | --- | --- | --- |
| Cc1ccc2c(c1)c1c(n2CC(O)c2ccncc2)CCN2CCCC12 (single isomer, unassigned) [Compound No. 178d] | up to 41.29% | 50.13% | – | – |
| Cc1ccc2c(c1)c1c(n2CC(C)(O)c2ccc(F)nc2)CCN2CCCC12 (single isomer, unassigned) [6a] | – | – | 59% | 91% |
| Cc1ccc2c(c1)c1c(n2CC(OC(=O)N2CCCC2)c2ccncc2)CCN(C)C1 (single isomer, unassigned) [4b] | – | – | 28% | 35% |
| Cc1cc(F)c2c(c1)c1c(n2CC(C)(O)c2cccnc2)CCN2CCCC12 (centres unmarked) [Compound No. 79a] | 2% | 21.39% | – | – |
